# Data from patent publication US7851474B2, “Dipiperazinyl ketones and related analogues” (Neurogen Corporation, priority 2005, dated 2010).
# Biological target: T1, chimeric human H3 receptor (Homo sapiens, UniProt Q9Y5N1, E19D)
# T1 construct: made in house; host or cells: Sf9 insect cells (baculovirus infection); P2 membrane preparation
# Test: Chimeric human H3 receptor GTP binding assay (agonist-stimulated GTP-gamma35S binding, Example 7)
# Assay type: biochemical
# Details: Table II, "*" in Ki; assay of Example 7; read-out: Ki
# Summary of the method: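 Sf9 membranes co-expressing the chimeric receptor and heterotrimeric G-protein subunits, 35 μg protein per tube, in pH 7.4 Tris buffer with 10 μM GDP. Test compounds at 10^−10 to 10^−6 M with 1 μM histamine, 60 min at room temperature. Filter-bound GTP-gamma^35S read by scintillation; IC50 from non-linear regression of dose-response curves.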
# T1 sequence (Q9Y5N1 with tags, fused parts or gaps E19D): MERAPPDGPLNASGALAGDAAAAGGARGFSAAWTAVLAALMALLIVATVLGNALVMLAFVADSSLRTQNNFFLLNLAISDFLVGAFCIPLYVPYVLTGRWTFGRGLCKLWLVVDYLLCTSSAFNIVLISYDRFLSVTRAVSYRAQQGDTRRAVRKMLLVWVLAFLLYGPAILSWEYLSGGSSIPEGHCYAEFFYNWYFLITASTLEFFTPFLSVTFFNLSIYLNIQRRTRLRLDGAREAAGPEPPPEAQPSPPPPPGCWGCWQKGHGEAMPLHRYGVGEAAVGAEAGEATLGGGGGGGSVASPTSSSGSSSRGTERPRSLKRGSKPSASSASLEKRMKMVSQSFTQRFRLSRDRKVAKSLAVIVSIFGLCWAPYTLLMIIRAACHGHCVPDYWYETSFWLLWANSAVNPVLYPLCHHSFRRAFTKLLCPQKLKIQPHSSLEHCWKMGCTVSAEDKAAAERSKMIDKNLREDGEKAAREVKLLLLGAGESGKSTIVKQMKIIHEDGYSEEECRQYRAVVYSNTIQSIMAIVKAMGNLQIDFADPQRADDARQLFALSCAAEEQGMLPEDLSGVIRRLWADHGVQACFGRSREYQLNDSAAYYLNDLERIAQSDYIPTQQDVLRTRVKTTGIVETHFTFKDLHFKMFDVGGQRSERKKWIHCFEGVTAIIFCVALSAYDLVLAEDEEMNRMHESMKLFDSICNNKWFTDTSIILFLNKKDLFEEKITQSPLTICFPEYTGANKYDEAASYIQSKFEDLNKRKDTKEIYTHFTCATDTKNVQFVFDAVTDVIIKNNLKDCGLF
row,SMILES,Ki [nM]
1,"CC1CCCCN1C(=O)c1ccc(N2CCN(CC(=O)N3CCN(C4CCC4)CC3)CC2)cc1 (stereo not shown) [Compound 644, 1-cyclobutyl-4-[(4-{4-[(2-methylpiperidin-1-yl)carbonyl]phenyl}piperazin-1-yl)acetyl]piperazine]",< 1000
2,"CC1CCCN1C(=O)c1ccc(N2CCN(CC(=O)N3CCN(C4CCC4)CC3)CC2)cc1 (stereo not shown) [Compound 645, 1-cyclobutyl-4-[(4-{4-[(2-methylpyrrolidin-1-yl)carbonyl]phenyl}piperazin-1-yl)acetyl]piperazine]",< 1000
3,"CC1CC(C)CN(C(=O)c2ccc(N3CCN(CC(=O)N4CCN(C5CCC5)CC4)CC3)cc2)C1 (stereo not shown) [Compound 646, 1-cyclobutyl-4-[(4-{4-[(3,5-dimethylpiperidin-1-yl)carbonyl]phenyl}piperazin-1-yl)acetyl]piperazine]",< 1000
4,"O=C(CN1CCN(c2ccc(C(=O)N3CCC(F)(F)CC3)cc2)CC1)N1CCN(C2CCC2)CC1 [Compound 647, 1-cyclobutyl-4-[(4-{4-[(4,4-difluoropiperidin-1-yl)carbonyl]phenyl}piperazin-1-yl)acetyl]piperazine]",< 1000
5,"O=C(CN1CCN(c2ccc(C(=O)N3CCC(F)CC3)cc2)CC1)N1CCN(C2CCC2)CC1 [Compound 648, 1-cyclobutyl-4-[(4-{4-[(4-fluoropiperidin-1-yl)carbonyl]phenyl}piperazin-1-yl)acetyl]piperazine]",< 1000
6,"CC1CCN(C(=O)c2ccc(N3CCN(CC(=O)N4CCN(C5CCC5)CC4)CC3)cc2)CC1 [Compound 649, 1-cyclobutyl-4-[(4-{4-[(4-methylpiperidin-1-yl)carbonyl]phenyl}piperazin-1-yl)acetyl]piperazine]",< 1000
7,"CCC1CCCCN1C(=O)c1ccc(N2CCN(CC(=O)N3CCN(C4CCC4)CC3)CC2)nc1 (stereo not shown) [Compound 650, 1-cyclobutyl-4-[(4-{5-[(2-ethylpiperidin-1-yl)carbonyl]pyridin-2-yl}piperazin-1-yl)acetyl]piperazine]",< 1000
8,"CC1CCCCN1C(=O)c1ccc(N2CCN(CC(=O)N3CCN(C4CCC4)CC3)CC2)nc1 (stereo not shown) [Compound 651, 1-cyclobutyl-4-[(4-{5-[(2-methylpiperidin-1-yl)carbonyl]pyridin-2-yl}piperazin-1-yl)acetyl]piperazine]",< 1000
9,"CC1CCCN1C(=O)c1ccc(N2CCN(CC(=O)N3CCN(C4CCC4)CC3)CC2)nc1 (stereo not shown) [Compound 652, 1-cyclobutyl-4-[(4-{5-[(2-methylpyrrolidin-1-yl)carbonyl]pyridin-1-yl}piperazin-1-yl)acetyl]piperazine]",< 1000
10,"CC1CC(C)CN(C(=O)c2ccc(N3CCN(CC(=O)N4CCN(C5CCC5)CC4)CC3)nc2)C1 (stereo not shown) [Compound 653, 1-cyclobutyl-4-[(4-{5-[(3,5-dimethylpiperidin-1-yl)carbonyl]pyridin-2-yl}piperazin-1-yl)acetyl]piperazine]",< 1000
11,"O=C(CN1CCC(F)(c2ccccc2)CC1)N1CCN(C2CCC2)CC1 [Compound 654, 1-cyclobutyl-4-[(4-fluoro-4-phenylpiperidin-1-yl)acetyl]piperazine]",< 1000
12,"O=C(CN1CC=C(c2ccccc2)CC1)N1CCN(C2CCC2)CC1 [Compound 656, 1-cyclobutyl-4-[(4-phenyl-3,6-dihydropyridin-1(2H)-yl)acetyl]piperazine]",< 1000
13,"O=C(CN1CCN(c2ccccc2)CC1)N1CCN(C2CCC2)CC1 [Compound 657, 1-cyclobutyl-4-[(4-phenylpiperazin-1-yl)acetyl]piperazine]",< 1000
14,"O=C(CN1CCC(N2CCCC2)CC1)N1CCN(C2CCC2)CC1 [Compound 658, 1-cyclobutyl-4-[(4-pyrrolidin-1-ylpiperidin-1-yl)acetyl]piperazine]",< 1000
15,"O=C(CN1CCN(c2ccc(-c3cccc(Cl)c3Cl)cc2)CC1)N1CCN(C2CCC2)CC1 [Compound 665, 1-cyclobutyl-4-{[4-(2′,3′-dichlorobiphenyl-4-yl)piperazin-1-yl]acetyl}piperazine]",< 1000
16,"O=C(CN1CCN(c2cccc(Cl)c2Cl)CC1)N1CCN(C2CCC2)CC1 [Compound 666, 1-cyclobutyl-4-{[4-(2,3-dichlorophenyl)piperazin-1-yl]acetyl}piperazine]",< 1000
17,"O=C(CN1CCN(c2ccc(-c3cccc(F)c3F)cc2)CC1)N1CCN(C2CCC2)CC1 [Compound 667, 1-cyclobutyl-4-{[4-(2′,3′-difluorobiphenyl-4-yl)piperazin-1-yl]acetyl}piperazine]",< 1000
18,"Cc1cccc(N2CCN(CC(=O)N3CCN(C4CCC4)CC3)CC2)c1C [Compound 672, 1-cyclobutyl-4-{[4-(2,3-dimethylphenyl)piperazin-1-yl]acetyl}piperazine]",< 1000
19,"Cc1cc(C)c(-c2ccc(N3CCN(CC(=O)N4CCN(C5CCC5)CC4)CC3)cc2)c(C)c1 [Compound 673, 1-cyclobutyl-4-{[4-(2′,4′,6′-trimethylbiphenyl-4-yl)piperazin-1-yl]acetyl}piperazine]",< 1000
20,"O=C(CN1CCN(c2ccc(-c3ccc(Cl)cc3Cl)cc2)CC1)N1CCN(C2CCC2)CC1 [Compound 675, 1-cyclobutyl-4-{[4-(2′,4′-dichlorobiphenyl-4-yl)piperazin-1-yl]acetyl}piperazine]",< 1000

# Other lines, results leading:
row,Ki [nM],SMILES
1,< 1000,"CCS(=O)(=O)c1ccc(N2CCN(CC(=O)N3CCN(C4CCC4)CC3)CC2)cc1 [Compound 597, 1-cyclobutyl-4-({4-[4-(ethylsulfonyl)phenyl]piperazin-1-yl}acetyl)piperazine]"
2,< 1000,"CS(=O)(=O)c1ccc(N2CCN(CC(=O)N3CCN(C4CCC4)CC3)CC2)cc1 [Compound 599, 1-cyclobutyl-4-({4-[4-(methylsulfonyl)phenyl]piperazin-1-yl}acetyl)piperazine]"
3,< 1000,"O=C(CN1CCN(c2ccc(C(=O)N3CCCCC3)cc2)CC1)N1CCN(C2CCC2)CC1 [Compound 601, 1-cyclobutyl-4-({40[4-(piperidin-1-ylcarbonyl)phenyl]piperazin-1-yl}acetyl)piperazine]"
4,< 1000,"CCCS(=O)(=O)c1ccc(N2CCN(CC(=O)N3CCN(C4CCC4)CC3)CC2)cc1 [Compound 602, 1-cyclobutyl-4-({4-[4-(propylsulfonyl)phenyl]piperazin-1-yl}acetyl)piperazine]"
5,< 1000,"O=C(CN1CCN(c2ccc(C(=O)N3CCCC3)cc2)CC1)N1CCN(C2CCC2)CC1 [Compound 603, 1-cyclobutyl-4-({4-[4-(pyrrolidin-1-ylcarbonyl)phenyl]piperazin-1-yl}acetyl)piperazine]"
6,< 1000,"O=C(CN1CCN(c2ccc(-c3ccc(OC(F)(F)F)cc3)cc2)CC1)N1CCN(C2CCC2)CC1 [Compound 604, 1-cyclobutyl-4-({4-[4′-(trifluoromethoxy)biphenyl-4-yl]piperazin-1-yl}acetyl)piperazine]"
7,< 1000,"O=C(CN1CCN(c2ccc(-c3ccc(C(F)(F)F)cc3)cc2)CC1)N1CCN(C2CCC2)CC1 [Compound 606, 1-cyclobutyl-4-({4-[4′-(trifluoromethyl)biphenyl-4-yl]piperazin-1-yl}acetyl)piperazine]"
8,< 1000,"O=C(CN1CCN(c2ccc(F)c(C(F)(F)F)c2)CC1)N1CCN(C2CCC2)CC1 [Compound 607, 1-cyclobutyl-4-({4-[4-fluoro-3-(trifluoromethyl)phenyl]piperazin-1-yl}acetyl)piperazine]"
9,< 1000,"O=C(CN1CCN(c2ccc(C(=O)N3CC=CCC3)cn2)CC1)N1CCN(C2CCC2)CC1 [Compound 609, 1-cyclobutyl-4-({4-[5-(3,6-dihydropyridin-1(2H)-ylcarbonyl)pyridin-2-yl]piperazin-1-yl}acetyl)piperazine]"
10,< 1000,"O=C(CN1CCN(c2ccc(C(=O)N3CCCCC3)cn2)CC1)N1CCN(C2CCC2)CC1 [Compound 610, 1-cyclobutyl-4-({4-[5-(piperidin-1-ylcarbonyl)pyridin-1-yl]piperazin-1-yl}acetyl)piperazine]"
11,< 1000,"O=C(CN1CCN(c2ccc(C(=O)N3CCCC3)cn2)CC1)N1CCN(C2CCC2)CC1 [Compound 611, 1-cyclobutyl-4-({4-[5-(pyrrolidin-1-ylcarbonyl)pyridin-2-yl]piperazin-1-yl}acetyl)piperazine]"
12,< 1000,"CCC1CCCCN1C(=O)c1cccc(N2CCN(CC(=O)N3CCN(C4CCC4)CC3)CC2)c1 (stereo not shown) [Compound 638, 1-cyclobutyl-4-[(4-{3-[(2-ethylpiperidin-1-yl)carbonyl]phenyl}piperazin-1-yl)acetyl]piperazine]"
13,< 1000,"CC1CCCCN1C(=O)c1cccc(N2CCN(CC(=O)N3CCN(C4CCC4)CC3)CC2)c1 (stereo not shown) [Compound 639, 1-cyclobutyl-4-[(4-{3-[(2-methylpiperidin-1-yl)carbonyl]phenyl}piperazin-1-yl)acetyl]piperazine]"
14,< 1000,"CC1CCCN1C(=O)c1cccc(N2CCN(CC(=O)N3CCN(C4CCC4)CC3)CC2)c1 (stereo not shown) [Compound 640, 1-cyclobutyl-4-[(4-{3-[(2-methylpyrrolidin-1-yl)carbonyl]phenyl}piperazin-1-yl)acetyl]piperazine]"
15,< 1000,"CC1CC(C)CN(C(=O)c2cccc(N3CCN(CC(=O)N4CCN(C5CCC5)CC4)CC3)c2)C1 (stereo not shown) [Compound 641, 1-cyclobutyl-4-[(4-{3-[(3,5-dimethylpiperidin-1-yl)carbonyl]phenyl}piperazin-1-yl)acetyl]piperzaine]"
16,< 1000,"CC1CCN(C(=O)c2cccc(N3CCN(CC(=O)N4CCN(C5CCC5)CC4)CC3)c2)CC1 [Compound 642, 1-cyclobutyl-4-[(4-{3-[(4-methylpiperidin-1-yl)carbonyl]phenyl}piperazin-1-yl)acetyl]piperazine]"
17,< 1000,"CCC1CCCCN1C(=O)c1ccc(N2CCN(CC(=O)N3CCN(C4CCC4)CC3)CC2)cc1 (stereo not shown) [Compound 643, 1-cyclobutyl-4-[(4-{4-[(2-ethylpiperidin-1-yl)carbonyl]phenyl}piperazin-1-yl)acetyl]piperazine]"
